Test results taken from US20230124862A1, “BISMUTH THIOL COMPOUNDS AND COMPOSITIONS AND METHODS OF TREATING MICROBIAL CO-INFECTIONS” (Microbion Corporation, priority 2020, published 2023).
In brackets after ≈: the same amount, converted by molar mass. Several values for one entry are separate records, joined by “and”; a condition that tells them apart may be missing. Identical values can stand only once. Like-named read-outs stand apart in the source and are kept apart here.

Experiments:
[1] = system: Burkholderia cepacia complex; assay: Checkerboard FIC/FICI assay; format: cell-based, Burkholderia spp.
P. aeruginosa [2] = assay: Checkerboard FIC/FICI assay; format: cell-based, Pseudomonas aeruginosa; conditions: for Drug B MIC: Colistin alone (checkerboard with BisEDT); for FICB / MICB: by checkerboard
P. aeruginosa [3] = assay: Broth microdilution MIC (Example 10); format: cell-based, Pseudomonas aeruginosa; conditions: initial MIC testing
[4] = system: Burkholderia cepacia complex; format: cell-based, Burkholderia spp.; conditions: initial MIC testing
[5] = system: vancomycin-intermediate Staphylococcus aureus (VISA); assay: Broth microdilution MIC (Example 12); format: cell-based; conditions: Staphylococcus aureus, VISA, VISA isolates; read-out: MIC values
fungal pathogens = assay: Antifungal activity, NIH/NIAID sponsored study; format: cell-based; conditions: for Antifungal activity, MIC 50%: 50% endpoint; for Antifungal activity, MIC 100%: 100% endpoint
[6] = P. aeruginosa 6322, Colistin in combination with BisEDT
[7] = P. aeruginosa 6977, Colistin in combination with BisEDT
[8] = P. aeruginosa 7745, Colistin in combination with BisEDT
[9] = P. aeruginosa isolate 1553 (TOB-R, AMK-R, CIP-R)
[10] = P. aeruginosa isolate 7745 (MEM-R, CIP-R, AZT-R)
[11] = P. aeruginosa isolate 7762 (MEM-I, CIP-I)
[12] = P. aeruginosa isolate 8798 (MEM-R, TOB-R, AMK-R, CIP-R, AZT-R, COL-R)
[13] = B. cepacia 546, Aztreonam in combination with BisEDT, by checkerboard
[14] = P. aeruginosa 6977, Aztreonam in combination with BisEDT

## Colistin
[1]; B. multivorans 1795, FIC of Colistin (Drug B) in combination with BisEDT
  FICB: 1
P. aeruginosa [2]; P. aeruginosa 6322
  Drug B MIC: 0.5 µg/mL
P. aeruginosa [2]; [6]
  FICB: 1
  MICB: 0.5 µg/mL
P. aeruginosa [2]; P. aeruginosa 6977
  Drug B MIC: 1 µg/mL
P. aeruginosa [2]; [7]
  FICB: 1
  MICB: 1 µg/mL
P. aeruginosa [2]; P. aeruginosa 7745
  Drug B MIC: 0.5 µg/mL
P. aeruginosa [2]; [8]
  FICB: 1
  MICB: 0.5 µg/mL
P. aeruginosa [2]; P. aeruginosa 9108
  Drug B MIC: 0.0005 µg/mL
P. aeruginosa [2]; isolate 8798 (organism name not given)
  Drug B MIC: >0.256 µg/mL

## O=C(O)c1cn(C2CC2)c2cc(N3CCNCC3)c(F)cc2c1=O [CIP]
P. aeruginosa [3]; [9]
  MIC: 4 µg/mL (≈ 12.1 µM)
P. aeruginosa [3]; [10]
  MIC: 4 µg/mL (≈ 12.1 µM)
P. aeruginosa [3]; [11]
  MIC: 7 µg/mL (≈ 21.1 µM)
P. aeruginosa [3]; [12]
  MIC: 4 µg/mL (≈ 12.1 µM)
P. aeruginosa [2]; isolate 103 (ATCC 25922), during FIC testing, each agent tested alone for QC, one replicate
  MIC: 1 µg/mL

## C[C@H]1[C@H](NC(=O)/C(=N\OC(C)(C)C(=O)O)c2csc(N)n2)C(=O)N1S(=O)(=O)O [AZT]
[4]; B. cenocepacia isolate 0548 (CIP-R)
  MIC: […]
[4]; B. cenocepacia isolate 0813 (CPI-I)
  MIC: […]
[4]; B. cenocepacia isolate 1631
  MIC: […]
[4]; B. cenocepacia isolate 1783
  MIC: […]
[4]; B. cepacia isolate 0546
  MIC: […]
[4]; B. cepacia isolate 0547
  MIC: […]
[4]; B. cepacia isolate 1794
  MIC: […]
[4]; B. cepacia isolate 9040
  MIC: […]
[4]; B. multivorans isolate 1580 (CIP-R)
  MIC: […]
[4]; B. multivorans isolate 1791
  MIC: […]
[4]; B. multivorans isolate 1795 (MEM-I, CIP-R)
  MIC: […]
[4]; B. multivorans isolate 5665 (CIP-I)
  MIC: […]
[4]; B. multivorans isolate 8952 (CIP-I)
  MIC: […]
[1]; B. cenocepacia isolate 0548, during FIC testing
  MIC: […]
[1]; B. cenocepacia isolate 0813, during FIC testing
  MIC: […]
[1]; B. cepacia isolate 0546, during FIC testing
  MIC: […]
[1]; B. cepacia isolate 1793, during FIC testing
  MIC: 128 µg/mL
[1]; B. multivorans isolate 1795, during FIC testing
  MIC: […]
P. aeruginosa [3]; P. aeruginosa isolate 103, QC strain
  MIC: […]
P. aeruginosa [3]; P. aeruginosa isolate 1497 (TOB-R AMK-R, CIP-I, AZT-R, COL-R)
  MIC: […]
P. aeruginosa [3]; P. aeruginosa isolate 1530 (TOB-R, AMK-R, CIP-R)
  MIC: […]
P. aeruginosa [3]; [9]
  MIC: […]
P. aeruginosa [3]; P. aeruginosa isolate 6322 (MEM-R, TOB-R, AMK-R, CIP-R, AZT-R)
  MIC: […]
P. aeruginosa [3]; P. aeruginosa isolate 6977 (MEM-I, TOB-R, CIP-R, AZT-I)
  MIC: […]
P. aeruginosa [3]; [10]
  MIC: […]
P. aeruginosa [3]; P. aeruginosa isolate 7754 (MEM-R, TOB-R, CIP-R, AZT-I)
  MIC: […]
P. aeruginosa [3]; [11]
  MIC: […]
P. aeruginosa [3]; P. aeruginosa isolate 7871 (MEM-R, AZT-I)
  MIC: […]
P. aeruginosa [3]; P. aeruginosa isolate 7874
  MIC: […]
P. aeruginosa [3]; P. aeruginosa isolate 7886 (MEM-R, CIP-R, AZT-R)
  MIC: […]
P. aeruginosa [3]; P. aeruginosa isolate 8797 (MEM-R, TOB-R, AMK-R, CIP-R, AZT-R, COL-R)
  MIC: […]
P. aeruginosa [3]; [12]
  MIC: […]
P. aeruginosa [3]; P. aeruginosa isolate 9108 (CIP-R, AZT-I)
  MIC: […]

## NC[C@H]1O[C@H](O[C@H]2[C@H](O)[C@@H](O[C@H]3O[C@H](CO)[C@@H](O)[C@H](N)[C@H]3O)[C@H](N)C[C@@H]2N)[C@H](N)C[C@@H]1O [Topramycin]
[1]; B. cepacia 546, Topramycin in combination with BisEDT, by checkerboard
  FICB: 0.5

## C[C@H]1[C@H](NC(=O)/C(=N\OC(C)(C)C(=O)O)c2csc(N)n2)C(=O)N1S(=O)(=O)O [Aztreonam]
[1]; B. cenocepacia 548, FIC of Aztreonam (Drug B) in combination with BisEDT
  FICB: […]
[1]; B. cenocepacia 548, MIC of Aztreonam (Drug B) in combination with BisEDT
  MICB: […]
[1]; B. cenocepacia 813, FIC of Aztreonam (Drug B) in combination with BisEDT
  FICB: […]
[1]; B. cenocepacia 813, MIC of Aztreonam (Drug B) in combination with BisEDT
  MICB: […]
[1]; [13]
  FICB: […]
  MICB: […]
[1]; B. cepacia 1793, FIC of Aztreonam (Drug B) in combination with BisEDT
  FICB: […]
[1]; B. cepacia 1793, MIC of Aztreonam (Drug B) in combination with BisEDT
  MICB: 128 µg/mL
[1]; B. multivorans 1795, Aztreonam alone, panel with BisEDT, read-out: Drug B MIC
  MIC: […]
[1]; B. multivorans 1795, FIC of Aztreonam (Drug B) in combination with BisEDT
  FICB: […]
[1]; B. multivorans 1795, MIC of Aztreonam (Drug B) in combination with BisEDT
  MICB: […]
P. aeruginosa [2]; [14]
  FICB: […]
  MICB: […]

## CC(=O)NC[C@H]1CN(c2ccc(N3CCOCC3)c(F)c2)C(=O)O1 [linezolid, reference compound]
[5]
  MIC: < 4 µg/mL

## C1C[S][Bi]([S]CC[S][Bi]2[S]CC[S]2)[S]1 [BisEQT]
Fungal pathogens; A. fumigatus AF1
  Antifungal activity, MIC 50%: 8 µg/mL
  Antifungal activity, MIC 100%: 16 µg/mL
Fungal pathogens; A. fumigatus AF2
  Antifungal activity, MIC 50%: 4 µg/mL
  Antifungal activity, MIC 100%: 16 µg/mL
Fungal pathogens; A. fumigatus AF3
  Antifungal activity, MIC 50%: 4 µg/mL
  Antifungal activity, MIC 100%: 16 µg/mL
Fungal pathogens; C. albicans CA1
  Antifungal activity, MIC 50%: 4 µg/mL
  Antifungal activity, MIC 100%: 8 µg/mL
Fungal pathogens; C. albicans CA2
  Antifungal activity, MIC 50%: 2 µg/mL
  Antifungal activity, MIC 100%: 8 µg/mL
Fungal pathogens; C. albicans CA3
  Antifungal activity, MIC 50%: 4 µg/mL
  Antifungal activity, MIC 100%: 16 µg/mL
Fungal pathogens; C. auris Cau1
  Antifungal activity, MIC 50%: 4 µg/mL
  Antifungal activity, MIC 100%: 16 µg/mL
Fungal pathogens; C. auris Cau2
  Antifungal activity, MIC 50%: 2 µg/mL
  Antifungal activity, MIC 100%: 8 µg/mL
Fungal pathogens; C. auris Cau3
  Antifungal activity, MIC 50%: 4 µg/mL
  Antifungal activity, MIC 100%: 8 µg/mL
Fungal pathogens; C. krusei ATCC6258
  Antifungal activity, MIC 50%: 1 µg/mL
  Antifungal activity, MIC 100%: 4 µg/mL
Fungal pathogens; C. neoformans CN1
  Antifungal activity, MIC 50%: 2 µg/mL
  Antifungal activity, MIC 100%: 8 µg/mL
Fungal pathogens; C. neoformans CN2
  Antifungal activity, MIC 50%: 4 µg/mL
  Antifungal activity, MIC 100%: 8 µg/mL
Fungal pathogens; C. neoformans CN3
  Antifungal activity, MIC 50%: 4 µg/mL
  Antifungal activity, MIC 100%: 16 µg/mL
Fungal pathogens; C. parapsilosis ATCC22019
  Antifungal activity, MIC 50%: 1 µg/mL
  Antifungal activity, MIC 100%: 4 µg/mL
Fungal pathogens; P. variotii CLSI QC
  Antifungal activity, MIC 50%: 4 µg/mL
  Antifungal activity, MIC 100%: 16 µg/mL
Fungal pathogens; R. arrhizus RA1
  Antifungal activity, MIC 50%: 8 µg/mL
  Antifungal activity, MIC 100%: 16 µg/mL
Fungal pathogens; R. arrhizus RA2
  Antifungal activity, MIC 50%: 4 µg/mL
  Antifungal activity, MIC 100%: 8 µg/mL
Fungal pathogens; R. arrhizus RA3
  Antifungal activity, MIC 50%: 4 µg/mL
  Antifungal activity, MIC 100%: 8 µg/mL
